Measurements as given in the METLIN SMRT retention time set (Domingo-Almenara et al. 2019).

Experiment: gradient 5% acetonitrile 3 min, to 50% in 2 min, to 85% in 15 min, held 3 min, 100 µL/min
Conditions: column: Zorbax Extend-C18 2.1 x 50 mm; eluents: water / acetonitrile, 0.1% formic acid
Method in brief: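 Retention time was recorded from adduct peaks, which were picked computationally and each inspected manually. Pure standards ran in mixtures of ~100 molecules on HPLC coupled to a quadrupole time-of-flight mass spectrometer, in positive and negative ionization mode, through a Zorbax Extend-C18 column (2.1 × 50 mm, 1.8 μm) at 100 μL/min. Eluents were water and acetonitrile, each with 0.1% formic acid.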

| SMILES | RP-LC retention time [s] |
| --- | --- |
| Cc1cc(-c2nnc(NC(=O)Cc3ccc4c(c3)OCO4)o2)n(C)n1 | 648 |
| CCOc1ccccc1C(=O)N1CCCCC1c1nncn1CC1CC1 (stereo not given) | 746 |
| O=C1COc2ccc(-c3csc(NC(=O)c4ccc(Cl)cc4)n3)cc2N1 | 899 |
| CCc1ccc(OCC(=O)Nc2nnc(C3CC(=O)N(c4ccc(F)cc4)C3)o2)cc1 (stereo not given) | 849 |
| O=C(CC1CCCC1)NCCc1noc(C2CC2)n1 | 713 |
| O=C1CCCCC(C(=O)N2CCCCC2)N1 (stereo not given) | 641 |
| CN(CCCNC(=O)C1c2ccccc2C(=O)N(C)C1c1cccs1)Cc1ccccc1 (stereo not given) | 645 |
| CN(C)[C@@H]1CN(C(=O)COc2ccc(Cl)cc2)C[C@H]1CO | 598 |
| Cc1ccc(NC(=O)c2cn(-c3cc(N(C)C)ncn3)cn2)cc1F | 884 |
| CCN(CC)c1nc(-c2ccc(C(C)(C)C)cc2)nc2ccccc12 | 943 |
| O=C(c1ccc(F)cc1F)N1CCC(n2cnnc2C2CC2)CC1 | 633 |
| Cc1nn(CC(=O)Nc2ccccc2C(F)(F)F)c(C)c1[N+](=O)[O-] | 792 |
| COc1ccc(NC(=O)CN2C(=O)NC3(CCCCC3)C2=O)cc1Cl | 778 |
| COc1ccc2c(c1)C1(CCN(C(=O)Nc3ccccc3F)C1)C(=O)N2 (stereo not given) | 701 |
| O=C(COC(=O)c1ccco1)Nc1ccc2c(c1)OCO2 | 688 |
| O=C(Nc1cnc(N2CCCC2)nc1)c1cc(F)cc(F)c1 | 765 |
| CCOC(=O)Nc1ccc2c(c1)N(CCC(C)C)C(=O)C(C)(C)CO2 | 1070 |
| CCCNC(=O)N1CCC(CCOc2ccncc2)CC1 | 571 |
| CC(C)(CO)NC(=O)Cc1ccc(NS(=O)(=O)/C=C/c2ccccc2)cc1 | 686 |

| SMILES | RP-LC retention time [s] |
| --- | --- |
| CCCC(NC(=O)Cc1ccccc1F)C(=O)Nc1nc2ccccc2[nH]1 (stereo not given) | 694 |
| O=C(Cn1c(=O)c(CCC(=O)NC2CCCC2)nc2ccccc21)NCc1ccccc1 | 782 |
| CN(C)C(=O)OC1=C(c2ccccc2)Sc2ccccc2-n2cccc21 | 1250 |
| CCc1ccccc1NC(=O)C(=O)c1cn(CC(=O)N2CCCC2)c2ccccc12 | 644 |
| CC(C)N1C(=O)Cc2ccccc2C1C(=O)NCc1ccccc1Br (stereo not given) | 825 |
| COc1ccc2c(C)c(CCC(=O)N[C@H](CC(C)C)C(=O)O)c(=O)oc2c1C | 781 |
| Cc1ccc2c(C(=O)N3CCCCC3)cc(NC(=O)C3CCC3)cc2n1 | 632 |
| O=C(Cn1cnc2c(sc3nc(-c4ccccc4)ccc32)c1=O)NCc1ccccc1 | 953 |
| O=C(CN1N=C(c2ccccc2)c2ccccc2S1(=O)=O)Nc1cccc(Cl)c1 | 1020 |
| COc1cc(C(=O)Nc2nc(-c3ccc4c(c3)NC(=O)CO4)c(C)s2)cc(OC)c1OC | 860 |
| O=C1CCN(C(=O)C2COc3ccccc3O2)CCOCCN1 (stereo not given) | 634 |
| O=C(NCc1cccs1)c1cccnc1N1CCNC(c2ccccc2)C1 (stereo not given) | 612 |
| CCN(CC)S(=O)(=O)c1ccc2c(c1)CC(C(=O)NCCN(C)C)N2C(C)=O (stereo not given) | 645 |
| CCOc1ccc(NS(=O)(=O)c2cc(C(=O)Nc3ccc(Br)cc3)n[nH]2)cc1 | 927 |
| Cc1oc2ncnc(N3CCCC(C(=O)N4CCC(C(N)=O)CC4)C3)c2c1C (stereo not given) | 620 |
| CC(C)(C)c1noc(-c2cccn3c(CC(=O)NC4CCCCC4)nnc23)n1 | 754 |
| CCc1noc2nc(C)n(CC(=O)NCCc3ccccc3)c(=O)c12 | 800 |
| CCCC(CCC)C(=O)N1CCCN(C2=NS(=O)(=O)C(c3ccc(F)cc3)=C2C)CC1 | 972 |

Results, then the compound that gave them:

| RP-LC retention time [s] | SMILES |
| --- | --- |
| 927 | COCCn1c(C2CCN(S(=O)(=O)c3ccc(C(C)C)cc3)C2)nc2cccnc21 (stereo not given) |
| 822 | CCOC(=O)c1ccc(NS(=O)(=O)c2cc(-c3c(CC)noc3NC(C)=O)ccc2C)cc1 |
| 827 | Cc1c(Cl)cccc1NC(=O)N1C[C@H](c2nc(-c3ccncc3)no2)[C@@H](C)C1 |
| 780 | CC(C)NC(=O)C1CN(S(=O)(=O)c2ccccc2)c2cc(C(C)(C)C)ccc2O1 (stereo not given) |
| 1100 | CCN(CC)S(=O)(=O)c1cccc(-c2nnc(-c3ccccc3Br)o2)c1 |
| 705 | Cn1cc(CN2CCC(C(=O)NCc3ccccc3F)CC2)c2cc(Cl)ccc21 |
| 1390 | CCOc1nc2ccccc2nc1N1CCCC(C(=O)Nc2ccc(Br)cc2F)C1 (stereo not given) |
| 866 | CC(C)CCNC(=O)Cn1c(=O)c(S(=O)(=O)c2ccccc2)cc2ccccc21 |
| 624 | Cn1cnc2ccc(-c3noc(CNC(=O)c4ccccc4)n3)cc21 |
| 641 | N#Cc1cccc(C(=O)N2CCC(c3cc(N)on3)CC2)c1 |
| 663 | Cn1cnc(S(=O)(=O)N2CCC(C(=O)NCCc3ccccc3)CC2)c1 |
| 630 | Cc1ccc(-c2noc(CCN3CCN(C)CC3)n2)cc1 |
| 664 | COc1ccc(Cl)cc1S(=O)(=O)N1CC(c2nc(-c3ccncc3)nn2C)C1 |
| 847 | Cc1nnc(-c2ccc3ccn(CC(=O)Nc4cccc(Cl)c4)c3c2)o1 |
| 872 | O=C(NCc1csc(-c2ccccc2)n1)C1CCN(S(=O)(=O)c2cccs2)CC1 |
| 1040 | COc1ccc2[nH]c(-c3ccccc3)cc2c1 |
| 1100 | Cc1ccc(NC(=O)CSc2cc(N3CCC(C)CC3)ncn2)c(C)c1 |
| 766 | CC(=O)Nc1ccc(-c2noc(C3CCCN(C(=O)c4ccsc4)C3)n2)cc1 (stereo not given) |
| 1100 | COc1ccc(-c2cc(-c3ccccc3)c(-c3ccccc3)nn2)cc1 |
| 1130 | Cc1cccc(NC(=O)C2CCCN(S(=O)(=O)c3cc(-c4noc(C5CCC5)n4)cs3)C2)c1 (stereo not given) |
| 781 | COc1ccc(NC(=O)COc2cc(C)nc(N3CCN(c4ccccc4)CC3)n2)cc1 |
| 942 | Cn1nc(-c2nc(-c3cccc(Cl)c3)no2)ccc1=O |
| 604 | Cc1cccn2cc(-c3cccc(S(=O)(=O)N4CCOCC4)c3)nc12 |
| 687 | Cc1nc(-c2noc(-c3cccnc3)n2)cn1CC(=O)Nc1ccc(F)cc1 |
| 829 | Cc1nnc(-c2cn(CC(=O)Nc3ccccc3Br)c3ccccc23)o1 |
| 1350 | Cc1cc(C)c(S(=O)(=O)N2CCC(c3noc(-c4ccccc4)n3)CC2)c(C)c1 |
| 1050 | Cc1ccc(NC(=O)Cn2cccc2-c2nnc(C3CCC3)o2)c(Cl)c1 |

| RP-LC retention time [s] | SMILES |
| --- | --- |
| 578 | CCc1ccc(Oc2cc(N3CCC(C(=O)NCCCOC)CC3)ncn2)cc1 |
| 726 | Cc1nc(C2CC23CCN(S(=O)(=O)c2cccnc2)CC3)no1 (stereo not given) |
| 741 | CC(C)N1CCn2c(nc3cc(C(=O)NCc4ccc(Cl)cc4)ccc32)C1=O |
| 922 | CCC1Oc2ccc(S(=O)(=O)N3CCC(C(=O)Nc4ccc(F)cc4C)CC3)cc2NC1=O (stereo not given) |
| 984 | COc1ccc(C(=O)Nc2nc(-c3ccc4c(c3)N(C)C(=O)C(C)O4)cs2)cc1 (stereo not given) |
| 986 | CCCOc1ccc(S(=O)(=O)n2cccn2)cc1C |
| 980 | O=c1c2c(ccn1Cc1nc(-c3ccsc3)no1)ccn2CC1CC1 |
| 1150 | COc1cccc(-c2nc(C3CCN(S(=O)(=O)c4cccc(C)c4)CC3)no2)c1 |
| 771 | CCCNC(=O)NCCC1CCN(S(=O)(=O)c2ccc(F)cc2)CC1 |
| 661 | CCCNC(=O)N1CCN(Cc2nc(-c3ccc(OCC)cc3)oc2C)CC1 |
| 826 | O=C(Cn1cc(-c2ccccc2)c2ncn(C3CC3)c(=O)c21)Nc1ccc2c(c1)OCO2 |
| 785 | COC(=O)N1CCc2ccc(Br)cc2C1C(=O)Nc1ccon1 (stereo not given) |
| 1030 | CCCN1C(=O)c2cc(S(=O)(=O)NCc3ccccc3F)ccc2Oc2cccnc21 |
| 749 | COc1cc([N+](=O)[O-])ccc1NC(=O)c1ccccc1S(C)(=O)=O |
| 760 | COc1cc(=O)n2c(c1C(=O)Nc1ccc(Br)cc1)CCCC2 |
| 872 | COc1ccc(OC)c(CNC(=O)C2=C3CCCN3c3ccc(F)cc3S2(=O)=O)c1 |
| 892 | O=C(Nc1ccc(N2CCN(c3ccccc3)C2=O)nc1)c1ccc(Br)o1 |
| 1350 | CCOC(=O)c1cnc(N2CCN(c3ccccc3F)CC2)c2ccccc12 |
| 879 | COc1ccccc1N1CCN(C(=O)c2csc3nc(-c4ccc(F)cc4)cn23)CC1 |
| 567 | COc1ccc(N2CCN(C(=O)C3CCN(CCc4c[nH]c5ncccc45)CC3)CC2)cc1 |
| 715 | Cc1ccc(NS(=O)(=O)c2cc(-c3[nH]ncc3C(=O)N3CCCC3)oc2C)cc1 |
| 751 | COCCc1noc(C2CN(S(=O)(=O)c3ccccc3)C2)n1 |
| 1150 | COC(=O)c1ccc2c(=O)n(-c3ccc4c(c3)OCO4)c(N3CCC(C)CC3)nc2c1 |
| 1200 | CCOC(=O)c1cc(C2CC2)nc2c1c(=O)n(Cc1ccc(F)cc1)c(=O)n2C |
| 668 | COCCn1c(CC2CCN(S(=O)(=O)c3ccc(OC)cc3)C2)nc2cccnc21 (stereo not given) |
| 750 | COc1ccc(CNC(=O)Nc2cc3c(cc2N2CCCC2)n(C)c(=O)n3C)cc1 |
